The term IC50 denotes the concentration needed to halve the response being measured.

Results on 24 compounds are retold here after ChEMBL document CHEMBL1146668, “1,2-Benzothiazine 1,1-dioxide alpha-ketoamide analogues as potent calpain I inhibitors” (Bioorg Med Chem Lett, 2004).

The target of test [1] is T1, Calpain-1 catalytic subunit (Homo sapiens, UniProt P07384).
T1 sequence (P07384 whole entry): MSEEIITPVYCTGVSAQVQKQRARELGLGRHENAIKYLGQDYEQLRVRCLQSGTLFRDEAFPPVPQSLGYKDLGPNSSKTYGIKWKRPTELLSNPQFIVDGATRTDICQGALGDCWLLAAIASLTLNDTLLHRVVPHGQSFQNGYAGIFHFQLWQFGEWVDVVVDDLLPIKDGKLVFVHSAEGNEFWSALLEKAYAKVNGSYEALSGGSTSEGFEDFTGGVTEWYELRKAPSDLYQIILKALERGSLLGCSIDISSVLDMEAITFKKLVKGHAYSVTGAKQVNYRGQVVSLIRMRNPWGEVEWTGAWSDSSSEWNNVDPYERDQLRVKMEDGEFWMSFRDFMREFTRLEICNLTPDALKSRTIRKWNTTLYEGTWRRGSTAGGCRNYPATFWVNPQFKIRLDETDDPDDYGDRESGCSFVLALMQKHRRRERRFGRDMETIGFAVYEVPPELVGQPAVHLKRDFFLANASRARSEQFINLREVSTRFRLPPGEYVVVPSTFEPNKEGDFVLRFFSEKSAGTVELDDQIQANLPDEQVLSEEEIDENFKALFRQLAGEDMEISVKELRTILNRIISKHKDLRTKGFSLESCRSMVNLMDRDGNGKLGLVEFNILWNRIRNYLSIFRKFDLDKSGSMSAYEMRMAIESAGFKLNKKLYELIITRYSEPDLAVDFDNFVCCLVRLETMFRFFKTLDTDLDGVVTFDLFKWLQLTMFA
The test can be described thus: In vitro inhibitory activity against recombinant human calpain 1.

For test [2], the target named is T1, Calpain-1 catalytic subunit. The test can be described thus: In vitro inhibitory activity against human calpain 1 in Molt-4 cells (intact human T-cell leukemia cell line). It counts as cell-based.
A further test deals with Chymotrypsinogen B (Homo sapiens, UniProt P17538). The test can be described thus: Inhibitory activity against chymotrypsinogen; Range 1-10 uM.
Test [3] concerns the target T2, Cathepsin B (Homo sapiens, UniProt P07858). The test is described as follows: Inhibitory activity against cathepsin B.
The target of test [4] is T1, Calpain-1 catalytic subunit. The test can be described thus: In vitro inhibitory activity against human calpain I; Not determined.
The target in test [5] is T2, Cathepsin B. The test can be described thus: Inhibitory activity against cathepsin B; In active.

Bounds are passed on as bounds.

Sequence of Chymotrypsinogen B (P17538 34-164 limits assumed, other chains not shown): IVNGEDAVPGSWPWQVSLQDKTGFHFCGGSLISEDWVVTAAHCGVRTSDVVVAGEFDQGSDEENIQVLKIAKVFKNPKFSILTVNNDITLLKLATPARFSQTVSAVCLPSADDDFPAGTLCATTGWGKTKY
Sequence of Chymotrypsinogen B (P17538 167-263 limits assumed, other chains not shown): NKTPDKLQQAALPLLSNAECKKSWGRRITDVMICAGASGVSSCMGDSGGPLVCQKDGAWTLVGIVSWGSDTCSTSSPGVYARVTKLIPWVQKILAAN

Regarding `CCN1C(C(=O)N[C@@H](Cc2ccccc2)C(=O)C(=O)NCc2ccncc2)Cc2cc3c(cc2S1(=O)=O)OCCO3` (some centres undefined), in test [1], the IC50 was found to be 240 nM.

Turning to `CCNC(=O)C(=O)[C@H](Cc1ccccc1)NC(=O)C1Cc2cc(Cl)ccc2S(=O)(=O)N1CC` (some centres undefined), the IC50 in test [1] was 1000 nM.

For `CCN1C(C(=O)N[C@@H](Cc2ccccc2)C(=O)C(=O)NC(C)C)Cc2cc3c(cc2S1(=O)=O)OCCO3` (some centres undefined), the IC50 in test [1] stood at 205 nM.

In test [2], `CCN1C(C(=O)N[C@@H](Cc2ccccc2)C(=O)C(=O)NCCCNS(=O)(=O)c2ccccc2)Cc2cc3c(cc2S1(=O)=O)OCCO3` (some centres undefined) registered an IC50 of 2700 nM.

Turning to `CCN1C(C(=O)N[C@@H](Cc2ccccc2)C(=O)C(=O)NCCc2ccccc2)Cc2cc3c(cc2S1(=O)=O)OCCO3` (some centres undefined), the IC50 in test [1] came out at 63 nM.

Regarding `CCN1C(C(=O)N[C@@H](Cc2ccccc2)C(=O)C(=O)NCCNS(=O)(=O)c2ccc(-c3ccccn3)s2)Cc2cc3c(cc2S1(=O)=O)OCCO3` (some centres undefined), the IC50 on Chymotrypsinogen B was > 10000 nM; against Cathepsin B [3], “Not Active”; in test [2] it was 1300 nM.

Turning to `CCN1C(C(=O)N[C@@H](Cc2ccccc2)C(=O)C(=O)NCCCn2ccnc2)Cc2cc3c(cc2S1(=O)=O)OCCO3` (some centres undefined), the IC50 in test [1] was found to be 5000 nM.

`CCN1C(C(=O)N[C@@H](Cc2ccccc2)C(=O)C(=O)NCCCNS(=O)(=O)c2ccc([N+](=O)[O-])cc2)Cc2cc3c(cc2S1(=O)=O)OCCO3` (some centres undefined) displayed an IC50 in test [2] of 3600 nM.

As for `CCN1C(C(=O)N[C@@H](Cc2ccccc2)C(=O)C(=O)NCCOC)Cc2cc3c(cc2S1(=O)=O)OCCO3` (some centres undefined), the half-maximal inhibitory concentration (IC50) in test [1] came to 200 nM.

For `CCN1C(C(=O)N[C@@H](Cc2ccccc2)C(=O)C(=O)NCCNS(=O)(=O)c2ccc([N+](=O)[O-])cc2)Cc2cc3c(cc2S1(=O)=O)OCCO3` (some centres undefined), inhibition in test [2] was half-maximal at 4200 nM (IC50).

As for `CCN1C(C(=O)N[C@@H](Cc2ccccc2)C(=O)C(=O)NCCNS(=O)(=O)c2ccc(F)cc2)Cc2cc3c(cc2S1(=O)=O)OCCO3` (some centres undefined), the half-inhibitory concentration (IC50) in test [2] came out at 2000 nM.

In test [4], `CCN1C(C(=O)N[C@H](C=O)Cc2ccccc2)Cc2cc(Cl)ccc2S1(=O)=O` (some centres undefined) showed an IC50 of 5 nM.

As to `O=C[C@H](Cc1ccccc1)NC(=O)C1Cc2ccccc2S(=O)(=O)N1` (some centres undefined), the IC50 in test [1] was 7 nM.

With `CCN1C(C(=O)N[C@@H](Cc2ccccc2)C(=O)C(=O)NCc2ccccn2)Cc2cc3c(cc2S1(=O)=O)OCCO3` (some centres undefined), in test [1], the IC50 turned out to be 170 nM.

Consider `CCN1C(C(=O)N[C@@H](Cc2ccccc2)C(=O)C(=O)NCCCN2CCCC2=O)Cc2cc3c(cc2S1(=O)=O)OCCO3` (some centres undefined), for which, in test [1], the IC50 came out at 500 nM.

For `CCN1C(C(=O)N[C@@H](Cc2ccccc2)C(=O)C(=O)NCCCN2CCOCC2)Cc2cc3c(cc2S1(=O)=O)OCCO3` (some centres undefined), in test [1], the IC50 came out at 195 nM.

On to `C=CCNC(=O)C(=O)[C@H](Cc1ccccc1)NC(=O)C1Cc2cc3c(cc2S(=O)(=O)N1CC)OCCO3` (some centres undefined), for which the IC50 in test [1] turned out to be 200 nM.

For `CCCCCNC(=O)C(=O)[C@H](Cc1ccccc1)NC(=O)C1Cc2cc3c(cc2S(=O)(=O)N1CC)OCCO3` (some centres undefined), in test [1], the IC50 worked out at 150 nM.

The compound `CCN1C(C(=O)N[C@@H](Cc2ccccc2)C(=O)C(=O)NCCCNS(=O)(=O)c2ccc(F)cc2)Cc2cc3c(cc2S1(=O)=O)OCCO3` (some centres undefined) gave an IC50 in test [2] of 2400 nM.

On to `CCN1C(C(=O)N[C@@H](Cc2ccccc2)C(=O)C(=O)NCCNS(=O)(=O)c2ccccc2)Cc2cc3c(cc2S1(=O)=O)OCCO3` (some centres undefined), for which the IC50 is > 10000 nM against Chymotrypsinogen B, 5000 nM in test [2] and “Not Active” against Cathepsin B [5].

On to `CCN1C(C(=O)N[C@@H](Cc2ccccc2)C(=O)C(=O)OC)Cc2cc3c(cc2S1(=O)=O)OCCO3` (some centres undefined), for which the IC50 in test [1] was 1000 nM.

Regarding `CCCCNC(=O)C(=O)[C@H](CC(C)C)NC(=O)C1Cc2cc3c(cc2S(=O)(=O)N1CC)OCCO3` (single isomer, unassigned; form 1), the IC50 in test [1] amounted to 500 nM.

`CCCCNC(=O)C(=O)[C@H](CC(C)C)NC(=O)C1Cc2cc3c(cc2S(=O)(=O)N1CC)OCCO3` (single isomer, unassigned; form 2): the IC50 in test [1] worked out at 1000 nM.

Turning to `CCCCNC(=O)C(=O)[C@H](Cc1ccccc1)NC(=O)C1Cc2cc3c(cc2S(=O)(=O)N1CC)OCCO3` (stereo in doubt), the IC50 on Chymotrypsinogen B is > 10000 nM; on Cathepsin B [5], “Not Active”.
